In US7138361B2, “Herbicidal heterocycles” (E. I. du Pont de Nemours and Company, priority 2000, dated 2006):

How the values were obtained:
Type in all cases: in vivo
[1] = system: giant foxtail (Setaria faberii); assay: Test B postemergence; conditions: 13 to 15 days
How it was run: (§1)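 Preemergence: seeds planted and treated with test chemicals in non-phytotoxic solvent with surfactant; postemergence on plants 2–18 cm (1- to 4-leaf stage). Kept in greenhouse 13–15 days, then visually rated against controls on a 0 (no effect) to 100 (complete control) scale.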

[2] = system: lambsquarters (Chenopodium album); assay: Test B postemergence; conditions: 13 to 15 days
How it was run: as §1

[3] = system: wild oat (Avena fatua); assay: Test B postemergence; conditions: 13 to 15 days
How it was run: as §1

[4] = system: velvetleaf (Abutilon theophrasti); assay: Test B postemergence; conditions: 13 to 15 days
How it was run: as §1

[5] = system: wheat (Triticum aestivum); assay: Test B postemergence; conditions: 13 to 15 days
How it was run: as §1

[6] = system: corn (Zea mays); assay: Test B postemergence; conditions: 13 to 15 days
How it was run: as §1

[7] = system: barnyardgrass (Echinochloa crus-galli); assay: Test B postemergence; conditions: 13 to 15 days
How it was run: as §1

[8] = system: morning glory (Ipomoea hederacea); assay: Test B postemergence; conditions: 13 to 15 days
How it was run: as §1

[9] = system: pigweed (Amaranthus retroflexus); assay: Test B postemergence; conditions: 13 to 15 days
How it was run: as §1

[10] = system: Surinam grass (Brachiaria decumbens); assay: Test B postemergence; conditions: 13 to 15 days
How it was run: as §1

[11] = system: blackgrass (Alopecurus myosuroides); assay: Test B postemergence; conditions: 13 to 15 days
How it was run: as §1

[12] = system: cocklebur (Xanthium strumarium); assay: Test B postemergence; conditions: 13 to 15 days
How it was run: as §1

[13] = system: crabgrass (Digitaria sanguinalis); assay: Test B postemergence; conditions: 13 to 15 days
How it was run: as §1

[14] = system: yellow nutsedge (Cyperus esculentus); assay: Test C preemergence; conditions: for Plant response rating (0 to 100), Nutsedge: Rate 500 g/ha, visual evaluation after 12 to 14 days
Source text: (§2) Seeds of plant species selected from bermudagrass (Cynodon dactylon), Surinam grass (Brachiaria decumbens), cocklebur (Xanthium strumarium), corn (Zea mays), crabgrass (Digitaria sanguinalis), woolly cupgrass (Eriochloa villosa), giant foxtail (Setaria faberii), goosegrass (Eleusine indica), johnsongrass (Sorghum halepense), kochia (Kochia scoparia), lambsquarters (Chenopodium album), morningglory (Ipomoea hederacea), yellow nutsedge (Cyperus esculentus), pigweed (Amaranthus retroflexus), common ragweed (Ambrosia elatior), soybean (Glycine max) and velvetleaf (Abutilon theophrasti) were planted and treated preemergence with test chemicals formulated in a non-phytotoxic solvent mixture which included a surfactant.
(§3) At the same time, plants selected from these crop and weed species and also winter barley (Hordeum vulgare), blackgrass (Alopecurus myosuroides), canary grass (Phalaris minor), chickweed (Stellaria media), downy brome (Bromus tectorum), green foxtail (Setaria viridis), Italian ryegrass (Lolium multiflorum), wheat (Triticum aestivum), wild oat (Avena fatua) and windgrass (Apera spica-venti) were treated with postemergence applications of some of the test chemicals formulated in the same manner. Plants ranged in height from 2 to 18 cm (1- to 4-leaf stage) for postemergence treatments. Plant species in the flooded paddy test consisted of rice (Oryza saliva), smallflower flatsedge (Cyperus difformis), duck salad (Heteranthera limosa) and barnyardgrass (Echinochloa crus-galli) grown to the 2-leaf stage for testing. Treated plants and controls were maintained in a greenhouse for 12 to 14 days, after which time all species were compared to controls and visually evaluated. Plant response ratings, summarized in Table C, are based on a scale of 0 to 100 where 0 is no effect and 100 is complete control. A dash (-) response means no test result.

[15] = system: giant foxtail (Setaria faberii); assay: Test C preemergence; conditions: for Plant response rating (0 to 100), Foxtail, Giant: visual evaluation after 12 to 14 days
Source text: as §2, §3

[16] = system: velvetleaf (Abutilon theophrasti); assay: Test C preemergence; conditions: preemergence; for Plant response rating (0 to 100), Velvetleaf: Rate 500 g/ha, visual evaluation after 12 to 14 days
Source text: as §2, §3

[17] = system: kochia (Kochia scoparia); assay: Test C preemergence; conditions: for Plant response rating (0 to 100), Kochia: visual evaluation after 12 to 14 days
Source text: as §2, §3

[18] = system: corn (Zea mays); assay: Test C preemergence; conditions: for Plant response rating (0 to 100), Corn: visual evaluation after 12 to 14 days
Source text: as §2, §3

[19] = system: johnsongrass (Sorghum halepense); assay: Test C preemergence; conditions: for Plant response rating (0 to 100), Johnsongrass: visual evaluation after 12 to 14 days
Source text: as §2, §3

[20] = system: morningglory (Ipomoea hederacea); assay: Test C preemergence; conditions: for Plant response rating (0 to 100), Morningglory: Rate 500 g/ha, visual evaluation after 12 to 14 days
Source text: as §2, §3

[21] = system: bermudagrass (Cynodon dactylon); assay: Test C preemergence; conditions: for Plant response rating (0 to 100 where 0 is no effect and 100 is complete control), Bermudagrass: visual evaluation after 12 to 14 days
Source text: as §2, §3

[22] = system: Sunflower; assay: Test C preemergence; conditions: Rate 500 g/ha, visual evaluation after 12 to 14 days
[23] = Rate 125 g/ha, scale 0 (no effect) to 100 (complete control)
[24] = Rate 500 g/ha, scale 0 to 100, 0 is no effect, 100 is complete control
[25] = Rate 62 g/ha, scale 0 to 100, 0 no effect, 100 complete control
[26] = preemergence, Rate 31 g/ha, scale 0 to 100
[27] = preemergence, Rate 125 g/ha, scale 0 to 100, 0 no effect, 100 complete control
[28] = preemergence, Rate 250 g/ha, scale 0 to 100, 0 no effect, 100 complete control
[29] = Rate 125 g/ha, scale 0 to 100, 0 no effect, 100 complete control
[30] = Rate 250 g/ha, scale 0 to 100, 0 no effect, 100 complete control

CC(C)Oc1cccc(N2CCC(n3ccc(C(C)(C)C)n3)C2=O)c1 (stereo not shown) [Compound 70]
Plant response rating, Foxtail, Giant [1, 23]: 0 | Plant response rating, Foxtail, Giant [1, 24]: 0 | Plant response rating, Lambsquarters [2, 23]: 0 | Plant response rating, Lambsquarters [2, 24]: 0 | Plant response rating, Wild Oat [3, 23]: 0 | Plant response rating, Wild Oat [3, 24]: 0 | Plant response rating, Velvetleaf [4, 23]: 0 | Plant response rating, Velvetleaf [4, 24]: 0 | Plant response rating, Wheat [5, 23]: 0 | Plant response rating, Wheat [5, 24]: 0 | Plant response rating, Corn [6, 23]: 0 | Plant response rating, Corn [6, 24]: 0 | Plant response rating, Barnyardgrass [7, 23]: 0 | Plant response rating, Barnyardgrass [7, 24]: 0 | Plant response rating, Morningglory [8, 23]: 30 | Plant response rating, Morningglory [8, 24]: 30 | Plant response rating, Pigweed [9, 23]: 0 | Plant response rating, Pigweed [9, 24]: 0 | Plant response rating, Surinam grass [10, 23]: 0 | Plant response rating, Surinam grass [10, 24]: 0 | Plant response rating, Blackgrass [11, 23]: 0 | Plant response rating, Blackgrass [11, 24]: 0 | Plant response rating, Cocklebur [12, 23]: 0 | Plant response rating, Cocklebur [12, 24]: 0 | Plant response rating, Crabgrass [13, 23]: 0 | Plant response rating, Crabgrass [13, 24]: 0 | Plant response rating, Nutsedge [14, 25]: 0 | Plant response rating, Nutsedge [14, 26]: 0 | Plant response rating (0 to 100), Nutsedge ([14]; preemergence): 0 | Plant response rating, Nutsedge [14, 27]: 0 | Plant response rating, Nutsedge [14, 28]: 0 | Plant response rating, Foxtail, Giant [15, 25]: 100 | Plant response rating, Foxtail, Giant [15, 26]: 0 | Plant response rating (0 to 100), Foxtail, Giant ([15]; preemergence, Rate 250 g/ha): 100 | Plant response rating (0 to 100), Foxtail, Giant ([15]; preemergence, Rate 500 g/ha): 100 | Plant response rating, Foxtail, Giant [15, 27]: 100 | Plant response rating, Velvetleaf ([16]; Rate 31 g/ha, scale 0 to 100): 0 | Plant response rating (0 to 100), Velvetleaf [16]: 10 | Plant response rating, Velvetleaf [16, 29]: 0 | Plant response rating, Velvetleaf [16, 30]: 0 | Plant response rating, Kochia [17, 25]: 80 | Plant response rating, Kochia [17, 26]: 0 | Plant response rating (0 to 100), Kochia ([17]; preemergence, Rate 250 g/ha): 100 | Plant response rating (0 to 100), Kochia ([17]; preemergence, Rate 500 g/ha): 100 | Plant response rating, Kochia [17, 27]: 90 | Plant response rating, Corn [18, 25]: 0 | Plant response rating, Corn [18, 26]: 0 | Plant response rating (0 to 100), Corn ([18]; preemergence, Rate 250 g/ha): 0 | Plant response rating (0 to 100), Corn ([18]; preemergence, Rate 500 g/ha): 20 | Plant response rating, Corn [18, 27]: 0 | Plant response rating, Johnsongrass [19, 25]: 0 | Plant response rating, Johnsongrass [19, 26]: 0 | Plant response rating (0 to 100), Johnsongrass ([19]; preemergence, Rate 250 g/ha): 50 | Plant response rating (0 to 100), Johnsongrass ([19]; preemergence, Rate 500 g/ha): 70 | Plant response rating, Johnsongrass [19, 27]: 10 | Plant response rating, Morningglory [20, 25]: 20 | Plant response rating, Morningglory [20, 26]: 0 | Plant response rating (0 to 100), Morningglory ([20]; preemergence): 40 | Plant response rating, Morningglory [20, 27]: 0 | Plant response rating, Morningglory [20, 28]: 0 | Plant response rating, Bermudagrass [21, 25]: 100 | Plant response rating, Bermudagrass [21, 26]: 80 | Plant response rating (0 to 100 where 0 is no effect and 100 is complete control), Bermudagrass ([21]; preemergence, Rate 250 g/ha): 100 | Plant response rating (0 to 100 where 0 is no effect and 100 is complete control), Bermudagrass ([21]; preemergence, Rate 500 g/ha): 100 | Plant response rating, Bermudagrass [21, 27]: 100 | Plant response rating (0 to 100), Sunflower [22]: 60

CCOC(=O)c1cccc(N2CCC(n3ccc(C(C)(C)C)n3)C2=O)c1 (stereo not shown) [Compound 72]
Plant response rating, Foxtail, Giant [1, 23]: 0 | Plant response rating, Foxtail, Giant [1, 24]: 50 | Plant response rating, Lambsquarters [2, 23]: 0 | Plant response rating, Lambsquarters [2, 24]: 0 | Plant response rating, Wild Oat [3, 23]: 0 | Plant response rating, Wild Oat [3, 24]: 0 | Plant response rating, Velvetleaf [4, 23]: 30 | Plant response rating, Velvetleaf [4, 24]: 60 | Plant response rating, Wheat [5, 23]: 0 | Plant response rating, Wheat [5, 24]: 0 | Plant response rating, Corn [6, 23]: 0 | Plant response rating, Corn [6, 24]: 0 | Plant response rating, Barnyardgrass [7, 23]: 30 | Plant response rating, Barnyardgrass [7, 24]: 70 | Plant response rating, Morningglory [8, 23]: 20 | Plant response rating, Morningglory [8, 24]: 50 | Plant response rating, Pigweed [9, 23]: 20 | Plant response rating, Pigweed [9, 24]: 60 | Plant response rating, Surinam grass [10, 23]: 0 | Plant response rating, Surinam grass [10, 24]: 0 | Plant response rating, Blackgrass [11, 23]: 0 | Plant response rating, Blackgrass [11, 24]: 0 | Plant response rating, Cocklebur [12, 23]: 80 | Plant response rating, Cocklebur [12, 24]: 90 | Plant response rating, Crabgrass [13, 23]: 0 | Plant response rating, Crabgrass [13, 24]: 30 | Plant response rating, Nutsedge [14, 25]: 0 | Plant response rating (0 to 100), Nutsedge ([14]; preemergence): 20 | Plant response rating, Nutsedge [14, 27]: 0 | Plant response rating, Nutsedge [14, 28]: 20 | Plant response rating, Foxtail, Giant [15, 25]: 30 | Plant response rating (0 to 100), Foxtail, Giant ([15]; preemergence, Rate 250 g/ha): 70 | Plant response rating (0 to 100), Foxtail, Giant ([15]; preemergence, Rate 500 g/ha): 90 | Plant response rating, Foxtail, Giant [15, 27]: 70 | Plant response rating (0 to 100), Velvetleaf [16]: 40 | Plant response rating, Velvetleaf [16, 29]: 0 | Plant response rating, Velvetleaf [16, 30]: 10 | Plant response rating, Kochia [17, 25]: 30 | Plant response rating (0 to 100), Kochia ([17]; preemergence, Rate 250 g/ha): 90 | Plant response rating (0 to 100), Kochia ([17]; preemergence, Rate 500 g/ha): 100 | Plant response rating, Kochia [17, 27]: 100 | Plant response rating, Corn [18, 25]: 0 | Plant response rating (0 to 100), Corn ([18]; preemergence, Rate 250 g/ha): 0 | Plant response rating (0 to 100), Corn ([18]; preemergence, Rate 500 g/ha): 0 | Plant response rating, Corn [18, 27]: 0 | Plant response rating, Johnsongrass [19, 25]: 0 | Plant response rating (0 to 100), Johnsongrass ([19]; preemergence, Rate 250 g/ha): 0 | Plant response rating (0 to 100), Johnsongrass ([19]; preemergence, Rate 500 g/ha): 40 | Plant response rating, Johnsongrass [19, 27]: 0 | Plant response rating, Morningglory [20, 25]: 0 | Plant response rating (0 to 100), Morningglory ([20]; preemergence): 100 | Plant response rating, Morningglory [20, 27]: 30 | Plant response rating, Morningglory [20, 28]: 10 | Plant response rating, Bermudagrass [21, 25]: 0 | Plant response rating (0 to 100 where 0 is no effect and 100 is complete control), Bermudagrass ([21]; preemergence, Rate 250 g/ha): 90 | Plant response rating (0 to 100 where 0 is no effect and 100 is complete control), Bermudagrass ([21]; preemergence, Rate 500 g/ha): 100 | Plant response rating, Bermudagrass [21, 27]: 90 | Plant response rating (0 to 100), Sunflower [22]: 60
